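GI50: concentration for 50% inhibition of growth. The concentration for full growth arrest is given as TGI.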
Assays:
Assay in all cases: growth of human tumour cells (NCI), 384-well format
786-0 renal = tested on: 786-0 renal
A498 renal = tested on: A498 renal
A549 NSCLC = tested on: A549 NSCLC
ACHN renal = tested on: ACHN renal
BT-549 breast = tested on: BT-549 breast
CAKI-1 renal = tested on: CAKI-1 renal
CCRF-CEM leukemia = tested on: CCRF-CEM leukemia
COLO 205 colon = tested on: COLO 205 colon
DU-145 prostate = tested on: DU-145 prostate
HCC-2998 colon = tested on: HCC-2998 colon
HCT-116 colon = tested on: HCT-116 colon
HCT-15 colon = tested on: HCT-15 colon
HL-60(TB) leukemia = tested on: HL-60(TB) leukemia
HOP-62 NSCLC = tested on: HOP-62 NSCLC
HOP-92 NSCLC = tested on: HOP-92 NSCLC
HT29 colon = tested on: HT29 colon
IGROV1 ovarian = tested on: IGROV1 ovarian
K-562 leukemia = tested on: K-562 leukemia
KM12 colon = tested on: KM12 colon
LOX IMVI melanoma = tested on: LOX IMVI melanoma
M14 melanoma = tested on: M14 melanoma
MALME-3M melanoma = tested on: MALME-3M melanoma
MCF7 breast = tested on: MCF7 breast
MDA-MB-231 breast = tested on: MDA-MB-231 breast
MDA-MB-435 melanoma = tested on: MDA-MB-435 melanoma
MDA-MB-468 breast = tested on: MDA-MB-468 breast
MOLT-4 leukemia = tested on: MOLT-4 leukemia
NCI-H226 lung = tested on: NCI-H226 lung
NCI-H23 lung = tested on: NCI-H23 lung
NCI-H322M lung = tested on: NCI-H322M lung
NCI-H460 NSCLC = tested on: NCI-H460 NSCLC
NCI-H522 lung = tested on: NCI-H522 lung
NCI/ADR-RES ovarian = tested on: NCI/ADR-RES ovarian
OVCAR-3 ovarian = tested on: OVCAR-3 ovarian
OVCAR-4 ovarian = tested on: OVCAR-4 ovarian
OVCAR-5 ovarian = tested on: OVCAR-5 ovarian
OVCAR-8 ovarian = tested on: OVCAR-8 ovarian
PC-3 prostate = tested on: PC-3 prostate
RPMI-8226 leukemia = tested on: RPMI-8226 leukemia
RXF 393 renal = tested on: RXF 393 renal
SF-268 CNS = tested on: SF-268 CNS
SF-295 CNS = tested on: SF-295 CNS
SF-539 CNS = tested on: SF-539 CNS
SK-MEL-2 melanoma = tested on: SK-MEL-2 melanoma
SK-MEL-28 melanoma = tested on: SK-MEL-28 melanoma
SK-MEL-5 melanoma = tested on: SK-MEL-5 melanoma
SK-OV-3 ovarian = tested on: SK-OV-3 ovarian
SN12C renal = tested on: SN12C renal
SNB-19 CNS = tested on: SNB-19 CNS
SR leukemia = tested on: SR leukemia
SW-620 colon = tested on: SW-620 colon
T-47D breast = tested on: T-47D breast
TK-10 renal = tested on: TK-10 renal
U251 glioblastoma = tested on: U251 glioblastoma
UACC-257 melanoma = tested on: UACC-257 melanoma
UACC-62 melanoma = tested on: UACC-62 melanoma
UO-31 renal = tested on: UO-31 renal

Cc1cc(NC(=O)c2ccc(NS(=O)(=O)CCO)cc2N2CCC3(CC2)CC3)nc(N2CCC(F)(F)CC2)n1
GI50 ([…]-0 renal): 1630 nM
TGI (786-0 renal): 3070 nM
GI50 (A498 renal): 484 nM
TGI (A498 renal): 2350 nM
GI50 (A549 NSCLC): 2530 nM
TGI (A549 NSCLC): 6670 nM
GI50 (ACHN renal): 2020 nM
TGI (ACHN renal): 4940 nM
GI50 (BT-549 breast): 24.6 nM
TGI (BT-549 breast): 1260 nM
GI50 (CAKI-1 renal): 1890 nM
TGI (CAKI-1 renal): 6280 nM
GI50 (CCRF-CEM leukemia): 1720 nM
TGI (CCRF-CEM leukemia): 3120 nM
GI50 (COLO 205 colon): 1660 nM
TGI (COLO 205 colon): 3280 nM
GI50 (DU-145 prostate): 56.3 nM
TGI (DU-145 prostate): 2700 nM
GI50 (HCC-2998 colon): 72.5 nM
TGI (HCC-2998 colon): 402 nM
GI50 (HCT-116 colon): 1440 nM
TGI (HCT-116 colon): 2850 nM
GI50 (HCT-15 colon): 1660 nM
TGI (HCT-15 colon): 3060 nM
GI50 (HL-60(TB) leukemia): 2200 nM
TGI (HL-60(TB) leukemia): 3670 nM
GI50 (HOP-62 NSCLC): 1940 nM
TGI (HOP-62 NSCLC): 3650 nM
GI50 (HOP-92 NSCLC): 1890 nM
TGI (HOP-92 NSCLC): 3410 nM
GI50 (HT29 colon): 31.7 nM
TGI (HT29 colon): 152 nM
GI50 (IGROV1 ovarian): 1940 nM
TGI (IGROV1 ovarian): 4960 nM
GI50 (K-562 leukemia): 1570 nM
TGI (K-562 leukemia): 3040 nM
GI50 (KM12 colon): 694 nM
TGI (KM12 colon): 2180 nM
GI50 (LOX IMVI melanoma): 2120 nM
TGI (LOX IMVI melanoma): 3580 nM
GI50 (M14 melanoma): 328 nM
TGI (M14 melanoma): 1250 nM
GI50 (MALME-3M melanoma): 614 nM
TGI (MALME-3M melanoma): 3420 nM
GI50 (MCF7 breast): 2090 nM
TGI (MCF7 breast): 4910 nM
GI50 (MDA-MB-231 breast): 74.3 nM
TGI (MDA-MB-231 breast): 2480 nM
GI50 (MDA-MB-435 melanoma): 686 nM
TGI (MDA-MB-435 melanoma): 5300 nM
GI50 (MDA-MB-468 breast): 35.2 nM
TGI (MDA-MB-468 breast): 648 nM
GI50 (MOLT-4 leukemia): 1760 nM
TGI (MOLT-4 leukemia): 3180 nM
GI50 (NCI-H226 lung): 1570 nM
TGI (NCI-H226 lung): 3130 nM
GI50 (NCI-H23 lung): 1310 nM
TGI (NCI-H23 lung): 2670 nM
GI50 (NCI-H322M lung): 564 nM
TGI (NCI-H322M lung): 3370 nM
GI50 (NCI-H460 NSCLC): 298 nM
TGI (NCI-H460 NSCLC): 1050 nM
GI50 (NCI-H522 lung): 1860 nM
TGI (NCI-H522 lung): 4330 nM
GI50 (NCI/ADR-RES ovarian): 101 nM
TGI (NCI/ADR-RES ovarian): 703 nM
TGI (OVCAR-3 ovarian): 23.5 nM
GI50 (OVCAR-4 ovarian): 258 nM
TGI (OVCAR-4 ovarian): 1300 nM
GI50 (OVCAR-5 ovarian): 2010 nM
TGI (OVCAR-5 ovarian): 4700 nM
GI50 (OVCAR-8 ovarian): 71.6 nM
TGI (OVCAR-8 ovarian): 2610 nM
GI50 (PC-3 prostate): 1850 nM
TGI (PC-3 prostate): 3390 nM
GI50 (RPMI-8226 leukemia): 1590 nM
TGI (RPMI-8226 leukemia): 2950 nM
GI50 (RXF 393 renal): 13.5 nM
TGI (RXF 393 renal): 66.6 nM
GI50 (SF-268 CNS): 1420 nM
TGI (SF-268 CNS): 3310 nM
GI50 (SF-295 CNS): 373 nM
TGI (SF-295 CNS): 1140 nM
GI50 (SF-539 CNS): 53.7 nM
TGI (SF-539 CNS): 391 nM
GI50 (SK-MEL-2 melanoma): 89.9 nM
TGI (SK-MEL-2 melanoma): 2910 nM
GI50 (SK-MEL-28 melanoma): 792 nM
TGI (SK-MEL-28 melanoma): 5840 nM
GI50 (SK-MEL-5 melanoma): 1680 nM
TGI (SK-MEL-5 melanoma): 3070 nM
GI50 (SK-OV-3 ovarian): 89.5 nM
TGI (SK-OV-3 ovarian): 5810 nM
GI50 (SN12C renal): 1850 nM
TGI (SN12C renal): 3530 nM
GI50 (SNB-19 CNS): 1440 nM
TGI (SNB-19 CNS): 3110 nM
GI50 (SR leukemia): 22.1 nM
TGI (SR leukemia): 135 nM
GI50 (SW-620 colon): 1650 nM
TGI (SW-620 colon): 3140 nM
GI50 (T-47D breast): 694 nM
TGI (T-47D breast): 14100 nM
GI50 (TK-10 renal): 2160 nM
TGI (TK-10 renal): 4760 nM
GI50 (U251 glioblastoma): 60.8 nM
TGI (U251 glioblastoma): 479 nM
GI50 (UACC-257 melanoma): 390 nM
TGI (UACC-257 melanoma): 1960 nM
GI50 (UACC-62 melanoma): 1590 nM
TGI (UACC-62 melanoma): 3490 nM
GI50 (UO-31 renal): 1250 nM
TGI (UO-31 renal): 2890 nM

From PubChem BioAssay (NCI)
